In article PMC4587093 (Biochimica et biophysica acta, 2015):

How the values were obtained:
CYP1D1 = biological target: T1, CYP1D1 (Danio rerio, UniProt A0ACM8Q602); type: biochemical
T1 sequence (A0ACM8Q602 1-512): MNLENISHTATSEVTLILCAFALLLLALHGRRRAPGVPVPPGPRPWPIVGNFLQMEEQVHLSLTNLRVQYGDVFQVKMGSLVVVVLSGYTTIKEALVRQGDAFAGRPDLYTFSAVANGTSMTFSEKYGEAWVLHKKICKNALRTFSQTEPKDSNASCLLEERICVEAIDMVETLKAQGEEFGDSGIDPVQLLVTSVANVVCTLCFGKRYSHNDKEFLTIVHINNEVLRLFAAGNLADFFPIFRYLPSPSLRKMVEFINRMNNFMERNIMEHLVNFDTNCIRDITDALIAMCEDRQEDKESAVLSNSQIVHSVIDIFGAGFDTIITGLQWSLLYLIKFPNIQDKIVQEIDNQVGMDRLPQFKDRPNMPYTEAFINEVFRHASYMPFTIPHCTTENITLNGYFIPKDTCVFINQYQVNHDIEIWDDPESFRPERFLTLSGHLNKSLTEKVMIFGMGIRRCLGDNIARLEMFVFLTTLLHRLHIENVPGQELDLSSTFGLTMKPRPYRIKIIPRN

CYP1C1 [1] = biological target: T2, CYP1C1 (Danio rerio, UniProt A0PJ31); type: biochemical
T2 sequence (A0PJ31 1-523): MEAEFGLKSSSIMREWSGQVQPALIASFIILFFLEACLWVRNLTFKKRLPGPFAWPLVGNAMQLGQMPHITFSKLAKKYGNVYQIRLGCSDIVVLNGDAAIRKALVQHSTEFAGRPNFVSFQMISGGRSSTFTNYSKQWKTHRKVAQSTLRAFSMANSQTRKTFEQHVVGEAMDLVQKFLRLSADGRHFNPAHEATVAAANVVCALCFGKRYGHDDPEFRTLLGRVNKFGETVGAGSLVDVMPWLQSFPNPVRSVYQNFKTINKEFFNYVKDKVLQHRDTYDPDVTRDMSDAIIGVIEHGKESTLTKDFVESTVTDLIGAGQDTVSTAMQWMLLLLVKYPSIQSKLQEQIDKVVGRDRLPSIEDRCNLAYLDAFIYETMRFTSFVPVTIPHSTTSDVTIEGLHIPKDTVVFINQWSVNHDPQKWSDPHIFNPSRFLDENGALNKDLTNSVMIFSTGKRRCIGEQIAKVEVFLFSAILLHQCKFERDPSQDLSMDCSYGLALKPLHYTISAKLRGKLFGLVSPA

CYP1C2 = biological target: T3, CYP1C2 (Danio rerio, UniProt A0AC58HLV5); type: biochemical
T3 sequence (A0AC58HLV5 1-514): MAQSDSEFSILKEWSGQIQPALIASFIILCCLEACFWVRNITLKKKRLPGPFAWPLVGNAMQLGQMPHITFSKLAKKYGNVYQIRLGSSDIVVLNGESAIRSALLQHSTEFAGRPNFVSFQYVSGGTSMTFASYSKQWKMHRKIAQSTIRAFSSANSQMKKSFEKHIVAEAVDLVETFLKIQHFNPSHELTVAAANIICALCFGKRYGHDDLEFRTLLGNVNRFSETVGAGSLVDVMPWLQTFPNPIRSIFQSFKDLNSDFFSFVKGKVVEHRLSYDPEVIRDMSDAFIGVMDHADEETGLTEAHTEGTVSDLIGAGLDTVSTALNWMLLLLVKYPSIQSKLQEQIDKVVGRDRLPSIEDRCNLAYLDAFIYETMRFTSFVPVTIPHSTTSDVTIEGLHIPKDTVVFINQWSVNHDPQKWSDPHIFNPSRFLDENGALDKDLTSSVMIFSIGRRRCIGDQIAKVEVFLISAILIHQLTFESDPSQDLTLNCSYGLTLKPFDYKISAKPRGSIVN
T3 sequence (P16603 2-691 partner): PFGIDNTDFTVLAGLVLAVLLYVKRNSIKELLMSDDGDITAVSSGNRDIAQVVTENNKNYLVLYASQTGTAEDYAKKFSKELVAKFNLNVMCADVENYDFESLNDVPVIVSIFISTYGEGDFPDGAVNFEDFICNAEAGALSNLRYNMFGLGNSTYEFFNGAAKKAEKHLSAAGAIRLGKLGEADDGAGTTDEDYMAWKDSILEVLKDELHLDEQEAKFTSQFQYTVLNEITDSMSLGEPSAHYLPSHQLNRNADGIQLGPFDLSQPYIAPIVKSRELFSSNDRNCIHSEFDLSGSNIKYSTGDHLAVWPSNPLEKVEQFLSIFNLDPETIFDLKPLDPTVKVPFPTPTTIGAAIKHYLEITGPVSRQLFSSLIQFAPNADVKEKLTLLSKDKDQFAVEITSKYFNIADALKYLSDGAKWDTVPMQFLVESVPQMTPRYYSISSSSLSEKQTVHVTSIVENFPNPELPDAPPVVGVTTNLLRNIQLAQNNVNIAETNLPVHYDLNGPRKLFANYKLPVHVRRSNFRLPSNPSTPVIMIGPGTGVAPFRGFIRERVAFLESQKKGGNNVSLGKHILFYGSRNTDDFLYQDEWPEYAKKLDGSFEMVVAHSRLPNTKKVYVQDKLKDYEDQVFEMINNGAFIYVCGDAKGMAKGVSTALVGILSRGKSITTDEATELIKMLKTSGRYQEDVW

CYP1C1 [2] = biological target: T2, CYP1C1; type: cell-based
CYP1A = biological target: T4, CYP1A (Danio rerio, UniProt A0A8M1PCF4); test: O-deethylation rate; type: cell-based
T4 sequence (A0A8M1PCF4 1-519): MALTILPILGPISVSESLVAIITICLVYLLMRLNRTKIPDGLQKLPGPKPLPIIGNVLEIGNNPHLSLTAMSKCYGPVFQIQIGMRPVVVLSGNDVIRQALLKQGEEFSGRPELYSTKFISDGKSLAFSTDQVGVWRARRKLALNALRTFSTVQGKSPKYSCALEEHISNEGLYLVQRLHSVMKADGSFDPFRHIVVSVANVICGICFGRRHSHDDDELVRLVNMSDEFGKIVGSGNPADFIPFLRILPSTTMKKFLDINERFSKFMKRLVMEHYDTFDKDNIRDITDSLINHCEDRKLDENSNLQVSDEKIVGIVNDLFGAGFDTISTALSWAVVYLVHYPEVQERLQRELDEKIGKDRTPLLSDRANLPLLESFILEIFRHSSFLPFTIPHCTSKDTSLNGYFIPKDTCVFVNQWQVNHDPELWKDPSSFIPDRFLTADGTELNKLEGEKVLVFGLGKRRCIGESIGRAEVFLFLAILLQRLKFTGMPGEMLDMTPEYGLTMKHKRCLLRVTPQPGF

CYP1C1 [3] = biological target: T2, CYP1C1; test: kcat for O-demethylation; type: cell-based
Km for O-deethylation = substrate: CCOc1ccc2nc3ccc(=O)cc-3oc2c1; test: Km for O-deethylation; type: biochemical, Danio rerio; conditions: heme; NADPH

`c1ccc2c(c1)cc1ccc3cccc4ccc2c1c34` [BaP, benzo[a]pyrene] gave a Ki (CYP1D1) of 12 µM, a Ki (CYP1C1 [1]) of 60 nM and a Ki (CYP1C2) of 200 nM.

`CCOc1ccc2c(C(F)(F)F)cc(=O)oc2c1` [EFC, 7-ethoxy-4-trifluoromethyl-coumarin] was tested, and the “kcat (mol substrate oxidized/mol P450/min) ^a / EFC ^c, ^d” value (CYP1C1 [2]) was 1.51 ± 0.14 mol substrate oxidized/mol P450/min.

`CCOc1ccc2nc3ccc(=O)cc-3oc2c1` [ER, 7-ethoxyresorufin] was tested, and the “CYP expressed via pYES/DEST52 ^a / 1A” value (CYP1A) was 89.3 ± 1.9 pmol min^−1 mg^−1 microsomal protein.

In the case of `COc1ccc2nc3ccc(=O)cc-3oc2c1` [MR, 7-methoxyresorufin], the “kcat (mol substrate oxidized/mol P450/min) ^b / MR” value (CYP1C1 [3]) is reported as 4.9 ± 0.6 mol substrate oxidized/mol P450/min.

B1: CYP1C1 (Danio rerio) (protein)
chain: MEAEFGLKSSSIMREWSGQVQPALIASFIILFFLEACLWVRNLTFKKRLPGPFAWPLVGNAMQLGQMPHITFSKLAKKYGNVYQIRLGCSDIVVLNGDAAIRKALVQHSTEFAGRPNFVSFQMISGGRSSTFTNYSKQWKTHRKVAQSTLRAFSMANSQTRKTFEQHVVGEAMDLVQKFLRLSADGRHFNPAHEATVAAANVVCALCFGKRYGHDDPEFRTLLGRVNKFGETVGAGSLVDVMPWLQSFPNPVRSVYQNFKTINKEFFNYVKDKVLQHRDTYDPDVTRDMSDAIIGVIEHGKESTLTKDFVESTVTDLIGAGQDTVSTAMQWMLLLLVKYPSIQSKLQEQIDKVVGRDRLPSIEDRCNLAYLDAFIYETMRFTSFVPVTIPHSTTSDVTIEGLHIPKDTVVFINQWSVNHDPQKWSDPHIFNPSRFLDENGALNKDLTNSVMIFSTGKRRCIGEQIAKVEVFLFSAILLHQCKFERDPSQDLSMDCSYGLALKPLHYTISAKLRGKLFGLVSPA
With B1 the Km (Km for O-deethylation) was 85 ± 5 nM.

B2: CYP1C2 (Danio rerio) (protein)
chain: MAQSDSEFSILKEWSGQIQPALIASFIILCCLEACFWVRNITLKKKRLPGPFAWPLVGNAMQLGQMPHITFSKLAKKYGNVYQIRLGSSDIVVLNGESAIRSALLQHSTEFAGRPNFVSFQYVSGGTSMTFASYSKQWKMHRKIAQSTIRAFSSANSQMKKSFEKHIVAEAVDLVETFLKIQHFNPSHELTVAAANIICALCFGKRYGHDDLEFRTLLGNVNRFSETVGAGSLVDVMPWLQTFPNPIRSIFQSFKDLNSDFFSFVKGKVVEHRLSYDPEVIRDMSDAFIGVMDHADEETGLTEAHTEGTVSDLIGAGLDTVSTALNWMLLLLVKYPSIQSKLQEQIDKVVGRDRLPSIEDRCNLAYLDAFIYETMRFTSFVPVTIPHSTTSDVTIEGLHIPKDTVVFINQWSVNHDPQKWSDPHIFNPSRFLDENGALDKDLTSSVMIFSIGRRRCIGDQIAKVEVFLISAILIHQLTFESDPSQDLTLNCSYGLTLKPFDYKISAKPRGSIVN
For B2, the Km (Km for O-deethylation) was 110 ± 10 nM.
